Measured values taken from paper PMC11932207, “Regulating AMPA Receptors with Isoxazole-4-Carboxamide Derivatives: An Electrophysiological Study” (Journal of Xenobiotics, 2025).
Like-named read-outs stand apart in the source and are kept apart here.

How the values were obtained:
GluA2 = target: T1, GluA2 (Rattus norvegicus, UniProt P19491); test: Whole-cell patch clamp recordings of homomeric GluA2 AMPA receptor currents and kinetics in transfected HEK293t cells; format: cell-based; conditions: for A/AI (amplitude ratio, glutamate alone / with compound): 16 µM compound; for A/AI (amplitude ratio, glutamate alone / with compound) / t deact (weighted deactivation time constant) / t des (weighted desensitization time constant) / Amplitude, applying glutamate alone after compound / Amplitude (peak whole-cell current in presence of compound): mean ± SD; for A/AI (amplitude ratio, glutamate alone / with compound) / Amplitude, applying glutamate alone after compound / Amplitude (peak whole-cell current in presence of compound): n = 10; for t deact (weighted deactivation time constant): 10 mM glutamate for 1 ms; for t deact (weighted deactivation time constant) / t des (weighted desensitization time constant): with compound; for t des (weighted desensitization time constant): 10 mM glutamate for 500 ms; for Amplitude, applying glutamate alone after compound: glutamate alone after the compound; for Effect on deactivation kinetics (τdeac), in words / Effect on desensitization kinetics (τdes), in words: versus glutamate alone, one-way ANOVA; for Amplitude (peak whole-cell current in presence of compound): 16 µM compound co-applied with agonist, HEK293t, −60 mV, pH 7.4, 22 °C
T1 construct: expressed in transfected cells; host or cells: HEK293T (HEK293) cells, transient co-transfection with a separate EGFP vector
T1 sequence (P19491 22-883 isoform P19491-2 limits assumed): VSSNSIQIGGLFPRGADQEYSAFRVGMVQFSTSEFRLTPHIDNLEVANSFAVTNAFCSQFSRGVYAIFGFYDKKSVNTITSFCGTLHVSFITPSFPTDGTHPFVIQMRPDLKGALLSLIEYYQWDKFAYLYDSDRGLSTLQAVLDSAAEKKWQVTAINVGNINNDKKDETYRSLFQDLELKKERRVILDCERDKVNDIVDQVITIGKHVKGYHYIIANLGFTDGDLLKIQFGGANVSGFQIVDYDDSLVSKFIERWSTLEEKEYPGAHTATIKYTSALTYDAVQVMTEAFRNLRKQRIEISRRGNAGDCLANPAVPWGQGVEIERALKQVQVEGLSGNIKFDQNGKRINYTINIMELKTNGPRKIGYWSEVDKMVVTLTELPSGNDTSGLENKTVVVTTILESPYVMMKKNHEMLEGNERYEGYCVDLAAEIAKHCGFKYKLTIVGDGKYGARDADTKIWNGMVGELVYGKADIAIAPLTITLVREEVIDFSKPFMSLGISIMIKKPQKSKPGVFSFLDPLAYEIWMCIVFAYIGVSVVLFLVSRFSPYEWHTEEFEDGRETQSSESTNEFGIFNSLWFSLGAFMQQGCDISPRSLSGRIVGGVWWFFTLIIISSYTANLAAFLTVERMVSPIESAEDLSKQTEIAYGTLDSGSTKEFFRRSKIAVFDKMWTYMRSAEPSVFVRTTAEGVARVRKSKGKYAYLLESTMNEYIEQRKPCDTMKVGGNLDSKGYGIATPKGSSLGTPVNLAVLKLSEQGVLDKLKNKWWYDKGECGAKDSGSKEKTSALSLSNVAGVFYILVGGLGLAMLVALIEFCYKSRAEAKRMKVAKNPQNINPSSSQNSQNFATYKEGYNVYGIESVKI
From the text: (§1) The AMPA receptor subunits utilized in this study were of the flip isoform. The flip variant of the GluA2 subunit was originally provided by S. F. Heinemann (Salk Institute, La Jolla, CA, USA) in a pBlueScript plasmid. This plasmid was subsequently sub-cloned into a pRK vector to enable expression in HEK293 cells, which were sourced from Sigma, Germany. Additionally, the unedited version of GluA2 (R607Qjj, flip isoform) and enhanced green fluorescent protein (EGFP), both contained in pRK5 vectors, were generously supplied by P. H. Seeburg (Max Planck Institute for Medical Research, Heidelberg, Germany). Chemical-mediated ways induced transfection. GluA2 homomers were expressed into HEK293 cells by the co-transfection of 1 μg GluA2 plasmid with an equal amount of GFP expression vectors (1:1 ratio) into the cells. In addition, co-transfection was conducted for heteromeric GluA2/3 subunits at a ratio of 1:1.2 for optimum expression. For post-transfection experiments, cells were plated in 10% fetal calf serum and antibiotics in DMEM in Petri plates. These cultures were maintained under carefully controlled conditions—37 °C and 5% CO2 within a humidified incubator. The selection of cells for recordings was based on fluorescence intensity. Highly GFP-positive cells were identified and isolated for further analysis, ensuring precise targeting of transfected populations.
(§2) Whole-cell patch clamp recordings were performed on HEK293t cells 36–48 h after transfection. Experiments were conducted at 22 °C, maintaining a holding potential of −60 mV, using an Integrated Patch Amplifier (IPA) from Sutter Instruments (Novato, CA, USA). Data acquisition was managed with SutterPatch Software v. 1.1.1 (Sutter Instruments), employing a sampling rate of 10 kHz and setting the low-pass filter at 2 kHz. […] The external solution contained 150 mM NaCl, 2.8 mM KCl, 0.5 mM MgCl2, 2 mM CaCl2, and 10 mM HEPES, adjusted to a pH of 7.4 using NaOH. The internal pipette solution was composed of 110 mM CsF, 30 mM CsCl, 4 mM NaCl, 0.5 mM CaCl2, 10 mM trypsin-EDTA solution B (0.25%), 0.05% EDTA, and 10 mM HEPES, with the pH adjusted to 7.2 using CsOH.
(§3) A dual-barrel glass pipette (theta tube) was employed for the rapid delivery of glutamate and other solutions. The theta tube was attached to a high-speed piezoelectric solution exchange system (Automate Scientific, Berkeley, CA, USA). To assess the efficiency of solution exchange, open-tip potentials were measured by applying solutions with different ionic compositions after the patch was expelled from the pipette. The time required for a 10–90% change in the solution was generally less than […].
(§4) Data analysis was performed with Igor Pro8.04 software (Wave Metrics, Inc., Portland, OR, USA). AMPA receptor deactivation and desensitization kinetics were measured by applying 10 mM glutamate for 1 ms and 500 ms, respectively. The currents from the AMPA receptor were fitted to a double-exponential model to quantify deactivation and desensitization time constants measured from the double-exponential fits. The weighted tau (τw) is calculated as: τw = (τf × af) + (τs × as), where τf and τs are the time constants of fast and slow exponential components and af and as represent their relative amplitudes.
(§5) Data are presented as the mean ± standard deviation (SD). The total number of HEK293 cells engaged was n = 10. The experimental groups were compared to the wild type using a one-way analysis of variance (ANOVA). Statistical significance was assessed using p values: p < 0.05 (*) indicated significance, p < 0.01 (**) indicated high significance, and p < 0.001 (***) indicated very high significance. The value “ns” indicates non-significance. Concentration–response relationships were modeled using the Hill equation with the resulting combined plots via GraphPad Prism software (version 6.01, GraphPad Software). The data presented are the means from 3–4 experimental replicates. […]

GluA2/3 = target: T2, GluA2/3 (UniProt P19491+P42263); test: Whole-cell patch clamp recordings of heteromeric GluA2/3 AMPA receptor currents and kinetics in transfected HEK293t cells; format: cell-based; conditions: for Amplitude (peak whole-cell current in presence of compound): 16 µM compound co-applied with agonist, HEK293t, −60 mV, pH 7.4, 22 °C; for Amplitude (peak whole-cell current in presence of compound) / A/AI (amplitude ratio, glutamate alone / with compound) / t deact (weighted deactivation time constant) / t des (weighted desensitization time constant) / Amplitude, applying glutamate alone after compound: mean ± SD; for Amplitude (peak whole-cell current in presence of compound) / A/AI (amplitude ratio, glutamate alone / with compound) / Amplitude, applying glutamate alone after compound: n = 10; for A/AI (amplitude ratio, glutamate alone / with compound): 16 µM compound; for t deact (weighted deactivation time constant): 10 mM glutamate for 1 ms; for t deact (weighted deactivation time constant) / t des (weighted desensitization time constant): with compound; for t des (weighted desensitization time constant): 10 mM glutamate for 500 ms; for Amplitude, applying glutamate alone after compound: glutamate alone after the compound; for Effect on deactivation kinetics (τdeac), in words / Effect on desensitization kinetics (τdes), in words: versus glutamate alone, one-way ANOVA
T2 construct: expressed in transfected cells; host or cells: HEK293T (HEK293) cells, transient co-transfection
T2 sequence (P19491 22-883 isoform P19491-2 limits assumed): as above
T2 sequence (P42263 29-894 isoform P42263-2 limits assumed): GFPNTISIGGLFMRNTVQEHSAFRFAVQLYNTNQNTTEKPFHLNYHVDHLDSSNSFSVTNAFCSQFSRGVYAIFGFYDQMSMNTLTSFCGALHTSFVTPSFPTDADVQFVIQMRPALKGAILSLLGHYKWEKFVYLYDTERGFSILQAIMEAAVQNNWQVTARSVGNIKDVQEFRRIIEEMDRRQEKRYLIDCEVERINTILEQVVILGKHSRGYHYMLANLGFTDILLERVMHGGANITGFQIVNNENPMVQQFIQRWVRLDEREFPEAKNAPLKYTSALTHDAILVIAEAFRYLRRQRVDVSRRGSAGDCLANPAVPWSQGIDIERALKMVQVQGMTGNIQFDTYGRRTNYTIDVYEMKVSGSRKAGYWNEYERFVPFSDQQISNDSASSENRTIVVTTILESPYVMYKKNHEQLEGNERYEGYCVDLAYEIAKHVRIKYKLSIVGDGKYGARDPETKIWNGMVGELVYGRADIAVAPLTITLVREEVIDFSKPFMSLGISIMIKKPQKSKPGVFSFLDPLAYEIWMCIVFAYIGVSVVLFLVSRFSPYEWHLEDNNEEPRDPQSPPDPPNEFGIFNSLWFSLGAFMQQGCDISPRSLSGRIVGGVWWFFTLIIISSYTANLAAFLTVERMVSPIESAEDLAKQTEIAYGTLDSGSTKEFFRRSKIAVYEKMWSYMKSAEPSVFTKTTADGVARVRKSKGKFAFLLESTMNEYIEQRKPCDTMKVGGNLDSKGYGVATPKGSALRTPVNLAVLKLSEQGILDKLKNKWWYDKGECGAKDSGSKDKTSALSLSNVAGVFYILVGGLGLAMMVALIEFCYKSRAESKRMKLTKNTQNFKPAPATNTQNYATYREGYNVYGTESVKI
From the text: as §1, §2, §3, §4, §5

[1] = concentration–response fit, read-out: Log IC50 (converted)
[2] = inhibition of whole-cell peak current, concentration–response, Hill fit, read-out: IC50

Structure (SMILES) | A/AI (amplitude ratio, glutamate alone / with compound) (GluA2) | t deact (weighted deactivation time constant) (GluA2) [ms] | t des (weighted desensitization time constant) (GluA2) [ms] | IC50 (GluA2; [1]) [µM] | Amplitude, applying glutamate alone after compound (GluA2) [pA] | IC50 (GluA2; [2]) [µM] | Effect on deactivation kinetics (τdeac), in words (GluA2) | Effect on desensitization kinetics (τdes), in words (GluA2) | Amplitude (peak whole-cell current in presence of compound) (GluA2/3) [pA] | A/AI (amplitude ratio, glutamate alone / with compound) (GluA2/3) | t deact (weighted deactivation time constant) (GluA2/3) [ms] | t des (weighted desensitization time constant) (GluA2/3) [ms] | IC50 (GluA2/3; [1]) [µM] | Amplitude, applying glutamate alone after compound (GluA2/3) [pA] | IC50 (GluA2/3; [2]) [µM] | Effect on deactivation kinetics (τdeac), in words (GluA2/3) | Effect on desensitization kinetics (τdes), in words (GluA2/3) | Amplitude (peak whole-cell current in presence of compound) (GluA2) [pA]
Cc1onc(-c2c(Cl)cccc2Cl)c1C(=O)Nc1ccc(-c2ccccc2)cc1 [CIC-9, N-([1,1′-biphenyl]-4-yl)-3-(2,6-dichlorophenyl)-5-methylisoxazole-4-carboxamide] | 4.10±0.18 | 4.6 ± 0.2 | 2.0 ± 0.1 | 6.31 | 1226±158 | 6.3 | statistically significant prolongation of τdeac | accelerated desensitization, although to a lesser degree | 124±19 | 4.01±0.19 | 4.5 ± 0.3 | 2.0 ± 0.1 | 6.46 | 484±89 | 6.42 | statistically significant prolongation of τdeac | accelerated desensitization, although to a lesser degree | 
Cc1onc(-c2c(Cl)cccc2Cl)c1C(=O)Nc1ccc(OC(F)(F)F)cc1 [CIC-10, 3-(2,6-dichlorophenyl)-5-methyl-N-(4-(trifluoromethoxy)phenyl)isoxazole-4-carboxamide] | 3.90±0.16 | 4.4 ± 0.2 | 2.3 ± 0.1 | 6.46 | 1249±188 | 6.51 | statistically significant prolongation of τdeac | did not significantly alter desensitization kinetics | 128±29 | 3.86±0.18 | 4.3 ± 0.2 | 2.5 ± 0.1 | 6.61 | 482±128 | 6.62 | statistically significant prolongation of τdeac | did not significantly alter desensitization kinetics | 328±35
Cc1onc(-c2c(Cl)cccc2Cl)c1C(=O)Nc1ccccc1 [CIC-8, 3-(2,6-dichlorophenyl)-5-methyl-N-phenylisoxazole-4-carboxamide] | 4.36±0.19 | 4.8 ± 0.2 | 1.9 ± 0.1 | 6.17 | 1235±151 | 6.21 | statistically significant prolongation of τdeac | accelerated desensitization, although to a lesser degree | 123±20 | 4.30±0.20 | 4.9 ± 0.3 | 1.9 ± 0.1 | 6.31 | 513±99 | 6.3 | statistically significant prolongation of τdeac | accelerated desensitization, although to a lesser degree | 291±22
COc1ccccc1Oc1ccc(NC(=O)c2c(-c3c(Cl)cccc3Cl)noc2C)cc1 [CIC-7, 3-(2,6-dichlorophenyl)-N-(4-(2-methoxyphenoxy)phenyl)-5-methylisoxazole-4-carboxamide] | 4.53±0.21 | 5.1 ± 0.2 | 1.7 ± 0.1 | 6.03 | 1231±106 | 6.03 | statistically significant prolongation of τdeac | accelerated desensitization, although to a lesser degree | 120±15 | 4.49±0.21 | 5.2 ± 0.2 | 1.8 ± 0.1 | 6.17 | 524±76 | 6.14 | statistically significant prolongation of τdeac | accelerated desensitization, although to a lesser degree | 280±13
COc1ccc(NC(=O)c2c(-c3c(Cl)cccc3Cl)noc2C)cc1OC [CIC-6, 3-(2,6-dichlorophenyl)-N-(3,4-dimethoxyphenyl)-5-methylisoxazole-4-carboxamide] | 4.84±0.23 | 5.4 ± 0.2 | 1.5 ± 0.1 | 5.75 | 1202±120 | 5.74 | statistically significant prolongation of τdeac | accelerated desensitization, although to a lesser degree | 116±10 | 4.76±0.14 | 5.3 ± 0.3 | 1.6 ± 0.1 | 5.75 | 534±56 | 5.76 | statistically significant prolongation of τdeac | accelerated desensitization, although to a lesser degree | 256±19
